Experimental data from US5925769A, “Acetylenic 1,5-diarylpyrazoles as antiinflammatory agents” (Ortho Pharmaceutical, Corp., priority 1998, dated 1999).

Assays:
[1] = biological target: T1, Sheep seminal vesicle (SSV) cyclooxygenase (Ovis aries, UniProt P05979); test: Procedure I: inhibition of sheep seminal vesicle (SSV) cyclooxygenase; assay type: biochemical; conditions: SSV cyclooxygenase; read-out: Proc. I IC50
T1 construct: Sheep seminal vesicle (SSV) cyclooxygenase (95% pure); purchased Biomol (Plymouth Meeting, PA); host or cells: sheep seminal vesicle
T1 sequence (P05979 25-600): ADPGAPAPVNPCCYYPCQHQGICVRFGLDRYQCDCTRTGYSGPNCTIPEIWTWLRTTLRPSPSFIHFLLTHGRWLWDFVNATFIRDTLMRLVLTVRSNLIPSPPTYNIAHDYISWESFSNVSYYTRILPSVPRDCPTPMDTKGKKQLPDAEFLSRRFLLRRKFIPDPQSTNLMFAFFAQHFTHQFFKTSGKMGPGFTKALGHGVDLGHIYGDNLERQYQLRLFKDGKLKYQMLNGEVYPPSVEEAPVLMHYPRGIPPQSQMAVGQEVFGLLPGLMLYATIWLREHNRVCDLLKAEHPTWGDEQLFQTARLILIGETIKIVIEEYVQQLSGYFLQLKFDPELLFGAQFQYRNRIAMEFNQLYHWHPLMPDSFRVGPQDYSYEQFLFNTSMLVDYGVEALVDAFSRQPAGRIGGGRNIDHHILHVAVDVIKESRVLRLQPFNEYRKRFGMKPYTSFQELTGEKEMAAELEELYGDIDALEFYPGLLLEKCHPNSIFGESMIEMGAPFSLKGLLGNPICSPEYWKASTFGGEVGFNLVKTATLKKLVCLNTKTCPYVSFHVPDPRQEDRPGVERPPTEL
How it was run: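 Turnover of [1-14C]-arachidonic acid by SSV cyclooxygenase ran 20 min after a 5 min preincubation at 37° C with test compound. Products (PGD2, PGE2, etc.) were extracted, resolved by TLC and quantified by radio-imaging; inhibition came from comparing curve areas with and without compound.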

5-LO [2] = biological target: T2, 5-LO (Rattus norvegicus, UniProt P12527); test: Procedure III: 5-LO (5-HETE) in intact RBL-1 cells; assay type: cell-based; conditions: calcium ionophore A 23187, read-out: Proc. III 5-LO IC50
T2 construct: the supernatant was saved as the source of enzymes; endogenous in cells; host or cells: RBL-1 (rat basophilic leukemia) cells
T2 sequence (P12527 1-673): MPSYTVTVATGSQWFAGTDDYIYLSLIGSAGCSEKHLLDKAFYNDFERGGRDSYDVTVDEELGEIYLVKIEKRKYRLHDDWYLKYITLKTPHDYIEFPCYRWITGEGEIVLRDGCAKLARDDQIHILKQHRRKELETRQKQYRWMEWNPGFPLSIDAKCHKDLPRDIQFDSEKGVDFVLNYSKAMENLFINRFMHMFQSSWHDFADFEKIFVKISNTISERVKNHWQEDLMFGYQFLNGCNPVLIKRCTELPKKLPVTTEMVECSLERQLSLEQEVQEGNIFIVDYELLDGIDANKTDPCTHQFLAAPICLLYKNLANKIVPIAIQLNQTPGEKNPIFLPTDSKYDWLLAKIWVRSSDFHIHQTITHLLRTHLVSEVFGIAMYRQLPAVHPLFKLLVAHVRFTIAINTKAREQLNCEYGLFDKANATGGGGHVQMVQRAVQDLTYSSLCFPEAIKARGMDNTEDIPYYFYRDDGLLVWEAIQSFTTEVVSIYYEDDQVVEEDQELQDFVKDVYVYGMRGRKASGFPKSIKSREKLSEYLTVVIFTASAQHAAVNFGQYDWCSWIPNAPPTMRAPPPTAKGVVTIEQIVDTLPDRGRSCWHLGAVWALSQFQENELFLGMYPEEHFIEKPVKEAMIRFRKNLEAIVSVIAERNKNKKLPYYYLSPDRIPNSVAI
How it was run: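 Intact RBL-1 cells at 1×10^5 cells/mL in HBSS were preincubated with vehicle or drug, pelleted and resuspended, then given 1-^14C-AA. 5-HETE (5-LO) and PgD2 (CO) were separated by TLC after acidification/extraction and quantified by radioimaging; IC50 from regression curve fit.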

5-LO [3] = test: Procedure IV: ex vivo eicosanoid synthesis assay using dogs, 5-LO (LTB4); assay type: in vivo; conditions: dog, oral, 5 mg/kg
Protocol: (§1) Adult beagle or mongrel dogs (10-15 kg) of either sex were fasted overnight prior to the initiation of each experiment. The forelimb was clipped and swabbed with an alcohol prep (70% isopropanol). Blood was drawn by venipuncture into syringes containing lithium heparin (Starstead, Newton, N.C.) immediately prior to administration of compound or vehicle and then at various intervals following dosing. The test compound was administered orally as a suspension in 0.5% methocel. At various times after dosing, blood samples were drawn and placed on an electric rocker platform to assure complete and continuous mixing. White blood cell (wbc) counts were performed using a Sysmex hematology analyzer. This was done in an effort to normalize the number of leukocytes to be stimulated with calcium ionophore. A 1.0 mL aliquot of whole blood was challenged with 50 μL of a 2.6×10^-5 M solution of calcium ionophore A23187 (Calbiochem, La Jolla, Calif.) prepared in DMSO and diluted in HBSS. After a 15 minute incubation at 37° C., the reaction was stopped by placing the samples in an ice bath (4° C.) for 5 minutes and then centrifuging at 11,000×g for 5 minutes to separate the plasma fraction from blood cells. The plasma fraction was removed, diluted in an appropriate buffer, and analyzed for the presence of LTB4 and TxB2 by standard RIA techniques.

5-LO [4] = biological target: T2, 5-LO; test: Procedure II: 5-LO activity (5-HETE) in broken RBL-1 cells (homogenate supernatant); assay type: biochemical; conditions: RBL-1 broken cell supernatant; read-out: Proc. II 5-LO IC50
How it was run: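 Supernatant from rat RBL-1 homogenate (9,220×g) was pre-incubated 5 min at 37 °C with 2 mM CaCl2 and compound or 1% DMSO, then with 1-^14C-arachidonic acid for 20 min at 37 °C.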

CO = test: Procedure IV: ex vivo eicosanoid synthesis assay using dogs, CO (TxB2); assay type: in vivo; conditions: dog, oral, 5 mg/kg
Protocol: as §1

IC50 [1]: 2540 nM | IC50 (5-LO [2]): 8100 nM | IC50 (5-LO [4]): 110 nM
SMILES: COc1ccc(-n2nc(C#CC(C)N(O)C(C)=O)cc2-c2ccc(Cl)cc2)cc1 (stereo not shown) [Cpd 35, N-acetyl-N-(1-(5-(4-chlorophenyl)-1-(4-methoxyphenyl)pyrazol-3-yl)-1-butyn-3-yl)hydroxylamine]
% inh 5-LO (5-LO [3]; 2 h): 34% | % inh 5-LO (5-LO [3]; 4 h): 20% | % inh 5-LO (5-LO [3]; 6 h): 26% | % inh 5-LO (5-LO [3]; 8 h): 31% | % inh 5-LO (5-LO [3]; 24 h): 12% | % inh CO (CO; 2 h): 92% | % inh CO (CO; 4 h): 75% | % inh CO (CO; 6 h): 81% | % inh CO (CO; 8 h): 62% | % inh CO (CO; 24 h): 68%
